Experiments:
[1] = background statement; cited from earlier work
[2] = system: IL-6 and IL-1β mRNA expression in LPS-activated RAW 264.7 cells; experiment: Pro-inflammatory cytokine mRNA expression (RT-PCR) in LPS-stimulated RAW 264.7 macrophages; type: cell-based, murine
Procedure: RAW246.7 cells were exposed to LPS either alone or in combination with either pooled human milk oligosaccharides (HMOs), or 3′-sialyllactose (3′SL) or 2′-fucosyllactose (2′FL). After 6 hours, IL-6 (A) and IL-1β (B) mRNA levels were measured by RT-PCR and are plotted as mean±standard deviation (n=8) relative the respective mRNA levels in cells that were exposed to LPS alone (**p<0.01; ***p<0.001). HMOs are a group of more than 150 different structurally distinct oligosaccharides and their composition follows a basic structural blueprint (C), containing five monosaccharide building blocks: glucose (dark gray circle), galactose (light gray circle), N-acetylglucosamine (dark gray square), fucose (gray triangle) and sialic acid (gray diamond). 3′SL contains lactose with sialic acid at the terminal end; 2′FL contains lactose with fucose at the terminal end.
Oligosaccharides Reduce Pro-Inflammatory Cytokine mRNA Expression in Stimulated Macrophages. HMOs were first isolated and purified from pooled human donor milk (pHMO) by using polymixin B affinity chromatography to remove any lipopolysaccharide (LPS) contamination. RAW 264.7 cells, a murine macrophage cell line, were then incubated with LPS (10 ng/mL) and pHMO (500 ηg/mL) for 6 hours. RT-PCR was used to measure cytokine mRNA expression.
A multi-dimensional chromatography approach was used that separates pHMO first by charge and then by size. […] To exclude that the observed effect was due to impurities or contaminations from the isolation process, the results were confirmed with synthetized and commercially available 3′SL. […] Other oligosaccharides like 2′-fucosyllactose (2′FL), where the terminal monosaccharide is fucose instead of sialic acid (see FIG. 1C), had no effect, emphasizing that the anti-inflammatory effect of 3′SL in macrophages is specific to the structure of 3′SL.

[3] = system: primary mouse cells (bone marrow derived macrophages); experiment: Pro-inflammatory cytokine expression in primary mouse bone marrow derived macrophages; type: cell-based
Source text: (§1) Accordingly, the results with 3′SL translate to primary cells as well as to human macrophages.

[4] = system: human THP-1 monocytic cell line; experiment: Pro-inflammatory cytokine expression in human THP-1 monocytic cell line; type: cell-based
Source text: as §1

[5] = system: collagen antibody-induced arthritis (CAIA); experiment: Collagen antibody-induced arthritis (CAIA) mouse model; type: in vivo, female BALB/c mice
Procedure: Oral gavage of 3′SL (20 mg thrice daily, beginning at the time of LPS trigger) reduces baseline-corrected ankle swelling (A) and clinical pathology score 28 (B) over the course of the study. […] (*p<0.05, **p<0.01, ***p<0.001).
Rheumatoid Arthritis In vivo Experimental Design. Macrophages and the pro-inflammatory cytokines IL-6 and IL-1β are known to perform a major role in the development and progression of joint destruction in animal models and patients with RA. […] Next, it was asked whether or not the in vitro results translate to an in vivo model. 3′SL efficacy in a collagen antibody-induced arthritis (CAIA) model was tested in mice. In the CAIA model, arthritis is induced by systemic administration of a cocktail of monoclonal antibodies that target various regions of collagen type II, which is one of the major constituents of articular cartilage matrix proteins, followed by the administration of endotoxin (LPS) on day 3. The high uptake rate in the CAIA model and the capacity to synchronize the development of arthritis from the time of antibody injection, makes this a relatively straightforward model that is used to address questions of pathogenic mechanisms and to screen candidate therapeutic agents.
8-week old female BALB/c mice were injected with 1.5 mg of Arthrogen-CIA monoclonal antibody cocktail (Chondrex, Inc.). Three days later, the mice were injected with 25 μg of LPS. Beginning with the time of LPS administration and followed for the next 11 consecutive days, mice were orally gavaged thrice daily with either 3′SL (20 mg in saline) or saline alone as control. With the tester blinded to the study groups, arthritis in each limb was determined once per day. […] By adding together, the scores of all four limbs, the maximum score per mouse is 28. In addition, a caliper was placed across the ankle joint at the widest point to measure ankle thickness in both hind limbs daily. 14 days after antibody cocktail administration, mice were euthanized and hind paws collected and processed for histology. H&E—as well as Toluidine blue-stained sections were scored from 0 to 4 for inflammation, bone erosion and cartilage depletion based on a previously validated scoring system.

[6] = RAW 264.7 cells, LPS 10 ng/mL, 6 hours, compared to LPS alone
[7] = 20 mg in saline, oral gavage thrice daily from LPS administration, vs saline
[8] = hind paws, day 14, scored 0 to 4, 20 mg oral gavage thrice daily

Structure (SMILES) | digestion in the stomach and absorption [1] | tolerability [1] | IC50 for reducing IL-6 and IL-1β mRNA expression (dose-range finding studies) ([2]; LPS-stimulated macrophages) | IL-1β mRNA level [2, 6] | IL-6 mRNA level [2, 6] | pro-inflammatory cytokine expression [3] | pro-inflammatory cytokine expression [4] | Baseline-corrected ankle thickness (paw swelling) [5, 7] | clinical index score 28 [5, 7] | adverse effects ([5]; 14-day study period, 20 mg oral gavage thrice daily) | histology score for cartilage damage [5, 8] | histology score for erosion [5, 8] | histology score for inflammation [5, 8]
CC(=O)N[C@H]1[C@H](O[C@H]2[C@@H](O)[C@@H](CO)O[C@@H](O[C@H]3[C@H](O)[C@@H](O)C(O)O[C@@H]3CO)[C@@H]2O)O[C@H](CO)[C@@H](O[C@@H]2O[C@H](CO)[C@H](O)[C@H](O)[C@H]2O)[C@@H]1O (mixture of isomers) [LNnT, lacto-N-(neo)tetraose] | remain undigested in the stomach and are absorbed intact in the lower gastrointestinal tract | well tolerated | – | – | – | – | – | – | – | – | – | – | –
CC(=O)N[C@H]1[C@H]([C@H](O)[C@H](O)CO)O[C@@](O[C@H]2[C@@H](O)[C@@H](CO)O[C@@H](O[C@H]3[C@H](O)[C@@H](O)C(O)O[C@@H]3CO)[C@@H]2O)(C(=O)O)C[C@@H]1O (stereo partly shown) [3′SL, 3′-sialyllactose] | – | – | around 15 μg/mL | most effective | most effective | reduced | reduced | significantly reduced | significantly reduced | No adverse effects | significantly lower | significantly lower | significantly lower
